{
  "source": "patent US10131693B2",
  "about": "“Bipodal-peptide binder” (GWANGJU INSTITUTE OF SCIENCE AND TECHNOLOGY, priority 2008, dated 2018)",
  "target": "T1, fibronectin ED-B (Homo sapiens, UniProt P02751)",
  "T1 construct": "After transformation of pET28b vector carrying fibronectin ED-B into BL21 cells; His-tag (N); made in house; host or cells: E. coli BL21 (pET28b)",
  "T1 sequence (P02751 1271-1359 limits assumed)": "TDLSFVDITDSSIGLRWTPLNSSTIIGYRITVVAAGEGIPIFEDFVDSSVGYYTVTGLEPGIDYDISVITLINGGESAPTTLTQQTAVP",
  "test": "SPR (Biacore) affinity measurement to fibronectin ED-B",
  "format": "binding",
  "method": "Bipodal-peptide binder peptides specific to ED-B, VEGF or nAchR which were repetitively found in DNA sequencing were synthesized from Anigen Inc. (Korea). Affinity was measured using BlAcore X instrument (Biacore AB, Uppsala, Sweden). ED-B and nAchR were immobilized on streptavidin (SA) chip (Biacore) by injecting 2,000 RU biotinylated-EDB. VEGF was immobilized on CM5 chip (Biacore) using EDC/NHS. PBS (pH 7.4) was used as a running buffer. […].\n. In addition to tryptophan zipper, GB1m3 and HP7 peptide as a type of other β-hairpin backbones were synthesized to contain N-terminal sequence (HCSSAV) and C-terminal sequence (IIRLEQ) of peptide 2 which is specifically bound to ED-B (Anigen, Korea). In other words, the sequence of bipodal-peptide binder in tryptophan zipper is […] (SEQ ID NO:21), and in GB1m3and HP7 are […] (SEQ ID NO:63) and […] (SEQ ID NO:64), respectively. Affinity of each peptide was measured using BIAcore X (Biacore AB, Uppsala, Sweden). […]\nA leucine zipper motif as a structure stabilizing region instead of β-hairpin structure was synthesized to contain N-terminal sequence (HCSSAV) and C-terminal sequence (IIRLEQ) of peptide 2 which is specifically bound to ED-B, producing two peptides, […] […] Both peptides were formed as dimer, and their affinities were measured using BlAcore X (Biacore AB, Uppsala, Sweden). […]",
  "note": "Residues, ends and D or L forms follow the SMILES beside them.",
  "data": [
    {"smiles": "CC[C@H](C)[C@H](NC(=O)CNC(=O)[C@H](CCCCN)NC(=O)[C@H](Cc1c[nH]c2ccccc12)NC(=O)[C@@H](NC(=O)[C@H](Cc1c[nH]c2ccccc12)NC(=O)[C@H](CCCCN)NC(=O)CNC(=O)[C@H](CC(N)=O)NC(=O)[C@H](CCC(=O)O)NC(=O)[C@H](Cc1c[nH]c2ccccc12)NC(=O)[C@@H](NC(=O)[C@H](Cc1c[nH]c2ccccc12)NC(=O)[C@H](CO)NC(=O)CNC(=O)[C@@H](NC(=O)[C@H](C)NC(=O)[C@H](CO)NC(=O)[C@H](CO)NC(=O)[C@H](CS)NC(=O)[C@@H](N)Cc1c[nH]cn1)C(C)C)[C@@H](C)O)[C@@H](C)O)C(=O)N[C@H](C(=O)N[C@@H](CCCNC(=N)N)C(=O)N[C@@H](CC(C)C)C(=O)N[C@@H](CCC(=O)O)C(=O)N[C@@H](CCC(N)=O)C(=O)O)[C@@H](C)CC", "note": "[Peptide 2 (fibronectin ED-B)] (H-HCSSAVGSWTWENGKWTWKGIIRLEQ-OH; N-terminus and C-terminus assumed)", "values": [
      {"measurement": "Kd", "result": 43, "unit": "nM"}
    ]}
  ]
}
